From ChEMBL document CHEMBL1862790, “Optimisation of fenarimol series for the treatment of Chagas disease”
Where “and” joins values, the source holds several entries; their conditions need not be identical. Equal values may be shown once.

How the values were obtained:
Trypanosoma cruzi [1] = assay: microbe, parasite or virus in culture; format: functional, Tulahuen LacZ, Clone C4
Trypanosoma cruzi [2] = assay: microbe, parasite or virus in culture; format: functional, organism-based, Tulahuen LacZ, Clone C4
[3] = DNDI: Cytotoxicity against L-6 rat myoblasts from skeletal muscle cells; details: L6 rat skeletal muscle myoblast cells
[4] = Trypanosoma cruzi, Tulahuen LacZ, Clone C4

Row | Compound | IC90 (Trypanosoma cruzi [1]; [4]) [nM] | IC50 (Trypanosoma cruzi [2]; [4]) [nM] | IC50 ([3]; IC50) [nM] | IC50 [3] [nM] | IC90 (Trypanosoma cruzi [1]) | IC50 (Trypanosoma cruzi [2])
1 | O=C(NC1CCN(C(c2ccc(C(F)(F)F)cc2)c2cnccn2)CC1)C1CCCCC1 (configuration not stated) | 870 | 250 | > 100000 | – | – | –
2 | O=C(C1CCC1)N1CCN(C(c2cncnc2)c2ccc(Cl)cc2F)CC1 (configuration not stated) | 868 | 412 | > 100000 | – | – | –
3 | FC(F)(F)c1ccc(C(NC2CCN(c3ncccn3)CC2)c2cscn2)cc1 (configuration not stated) | > 1000 | > 1000 | 88100 | – | – | –
4 | Cc1cnc(C(O)(c2ccc(Cl)cc2)c2cncnc2)cn1 (configuration not stated) | 5910 | 2110 | > 100000 | – | – | –
5 | O=C1NCCN1C1CCN(C(c2ccc(Cl)cc2)c2cccnc2)CC1 (configuration not stated) | 173 | 40 | 67800 | – | – | –
6 | O=C(NC1CCCCC1)NC1CCN(C(c2ccc(Cl)cc2)c2cccnc2)CC1 (configuration not stated) | 110 | 26 | 84300 | – | – | –
7 | O=C(NC1CCN(C(c2cccnc2)c2ccc(Cl)cc2F)CC1)C1CC1 (configuration not stated) | 130 | 38 | > 100000 | – | – | –
8 | CC(C)c1ccc(NC(=O)N2CCC(NC(c3ccc(Cl)cc3)c3cccnc3)CC2)cc1 (configuration not stated) | 15 | 5 | 19700 | – | – | –
9 | OC(c1ccc(Cl)cc1)(c1ccc(C(F)(F)F)cc1)c1ccc2ncccc2c1 (configuration not stated) | 7490 | 2840 | 56300 | – | – | –
10 | CC(C)(C)OC(=O)N1CC(NC(c2ccc(C(F)(F)F)cc2)c2cccnc2)C1 (configuration not stated) | 702 | 95 | 62500 | – | – | –
11 | CON=C(Cc1ccccc1)c1cccnc1 | > 1000 | > 1000 | > 100000 | – | – | –
12 | CCC(=O)NC(c1ccc(C(F)(F)F)cc1)c1cnccn1 (configuration not stated) | > 1000 | > 1000 | > 100000 | – | – | –
13 | CC(C)(C)NC(=O)N1CCN(C(c2ccc(Cl)cc2)c2cncnc2)CC1 (configuration not stated) | 600 | 230 | > 100000 | – | – | –
14 | CC(C)(C)OC(=O)N1CCN(C(c2ccc(Cl)cc2)c2cncnc2)CC1 (configuration not stated) | 280 | 130 | > 100000 | – | – | –
15 | O=S(=O)(c1ccc(C(F)(F)F)cc1)N1CCN(C(c2ccc(Cl)cc2)c2cccnc2)CC1 (configuration not stated) | 180 | 55 | 51400 | – | – | –
16 | O=C(c1ccno1)N1CCC(NC(c2ccc(C(F)(F)F)cc2)c2cccnc2)CC1 (configuration not stated) | 270 | 90 | > 100000 | – | – | –
17 | CN(C)C(=O)c1cccc(C(O)(c2ccc(Cl)cc2)c2cccnc2)c1 (configuration not stated) | 410 | 180 | > 100000 | – | – | –
18 | N#Cc1ccc(C(c2cccnc2)N2CCC(NC(=O)c3ccc(F)cc3C(F)(F)F)CC2)cc1 (configuration not stated) | 29.6 | 6.87 | 78500 | – | – | –
19 | N#Cc1ccnc(N2CCC(NC(c3ccc(Cl)cc3)c3cccnc3)CC2)n1 (configuration not stated) | 86 | 60 | 57100 | – | – | –
20 | O=C(c1ccccc1)N1CCN(C(c2cncnc2)c2ccc(Cl)cc2F)CC1 (configuration not stated) | 580 | 220 | > 100000 | – | – | –
21 | O=C(NCc1ccccc1)c1cccc(C(O)(c2ccc(Cl)cc2)c2cccnc2)c1 (configuration not stated) | 400 | 160 | 84000 | – | – | –
22 | CN(C)C(=O)N1CCN(C(c2ccc(Cl)cc2)c2cncnc2)CC1 (configuration not stated) | > 1000 | 620 | > 100000 | – | – | –
23 | NC(=O)c1ccccc1N1CCC(NC(c2cccnc2)c2ccc(Cl)cc2F)CC1 (configuration not stated) | > 100 | 76 | 71800 | – | – | –

Row | Compound | IC90 (Trypanosoma cruzi [1]; [4]) [nM] | IC50 (Trypanosoma cruzi [2]; [4]) [nM] | IC50 ([3]; IC50) [nM] | IC50 [3] [nM] | IC90 (Trypanosoma cruzi [1]) | IC50 (Trypanosoma cruzi [2])
24 | CC(C)CS(=O)(=O)N1CCN(C(c2ccc(Cl)cc2)c2cncnc2)CC1 (configuration not stated) | 200 | 62 | 92700 | – | – | –
25 | CS(=O)(=O)N1CCC(C(=O)NC(c2ccc(Cl)cc2)c2cccnc2)CC1 (configuration not stated) | > 10000 | 6090 | > 100000 | – | – | –
26 | FC(F)(F)c1ccc(C(NC2CCN(c3ncccn3)CC2)c2cccnc2)cc1 (configuration not stated) | 92.5 | 10.5 | 55100 | – | – | –
27 | CC(C)Oc1ccc(C(NC2CCN(C(=O)c3ccccc3)CC2)c2cccnc2)cc1 (configuration not stated) | 270 | 74 | > 100000 | – | – | –
28 | Cc1cc(C(=O)NC2CCN(C(c3ccc(C(F)(F)F)cc3)c3cccnc3)CC2)n(C(C)(C)C)n1 (configuration not stated) | 26.5 | 13.5 | > 100000 | – | – | –
29 | CC(C)(C)NC(=O)N1CCN(C(c2cncnc2)c2ccc(Cl)cc2F)CC1 (configuration not stated) | 110 | 54 | > 100000 | – | – | –
30 | CS(=O)(=O)N1CCC(NC(c2ccc(C(F)(F)F)cc2)c2cccnc2)CC1 (configuration not stated) | 930 | 190 | > 100000 | – | – | –
31 | COc1cncc(N2CCC(NC(c3ccc(Cl)cc3)c3cccnc3)CC2)c1 (configuration not stated) | 96 | 42 | 58900 | – | – | –
32 | CC(C)n1cc(C(NC2CCN(c3ccc(C(F)(F)F)cc3)CC2)c2cccnc2)cn1 (configuration not stated) | 81 | 29 | 77000 | – | – | –
33 | OC(c1cccnc1)(c1cccs1)c1ccc(Cl)cc1F (configuration not stated) | 105 | 5 | > 100000 | – | – | –
34 | Cc1ncoc1C(=O)NC1CCN(C(c2ccc(C(F)(F)F)cc2)c2cccnc2)CC1 (configuration not stated) | 120 | 29 | 84700 | – | – | –
35 | CC(C)Oc1ccc(C(NC2CCN(C(=O)Nc3ccccc3)CC2)c2cccnc2)cc1 (configuration not stated) | 250 | 72 | 72100 | – | – | –
36 | CC(C)(C)N1CCC(NC(c2ccc(Cl)cc2)c2cccnc2)CC1 (configuration not stated) | 8660 | 3060 | > 100000 | – | – | –
37 | Cc1noc(N2CCN(C(c3ccc(C(F)(F)F)cc3)c3cncnc3)CC2)n1 (configuration not stated) | 378 | 192 | > 100000 | – | – | –
38 | CC(C)c1ccc(S(=O)(=O)N2CCN(C(c3ccc(Cl)cc3)c3cncnc3)CC2)cc1 (configuration not stated) | 78 | 24 | 46100 | – | – | –
39 | O=C(NC1CCN(C(c2ccc(Cl)cc2)c2cccnc2)CC1)C1CC1 (configuration not stated) | 580 | 78 | 84100 | – | – | –
40 | O=C(NC1CCCCC1)c1cccc(C(O)(c2ccc(Cl)cc2)c2cccnc2)c1 (configuration not stated) | 210 | 60 | 52300 | – | – | –
41 | O=C(c1ccccc1)N1CC(CNC(c2ccc(C(F)(F)F)cc2)c2cccnc2)C1 (configuration not stated) | 142 | 67 | > 100000 | – | – | –
42 | CC(C)CS(=O)(=O)NC1CCN(C(c2cnccn2)c2ccc(F)cc2F)CC1 (configuration not stated) | 3540 | 750 | > 100000 | – | – | –
43 | O=S(=O)(NC1CCN(C(c2ccc(C(F)(F)F)cc2)c2cnccn2)CC1)c1ccccc1 (configuration not stated) | 900 | 260 | 55900 | – | – | –
44 | COc1ccc(CNC(c2ccc(Cl)cc2)c2cccnc2)cc1 (configuration not stated) | 899 | 78 | > 100000 | – | – | –
45 | CC(O)C(C)N1CCC(NC(c2ccc(Cl)cc2)c2cccnc2)CC1 (configuration not stated) | 3160 | 1810 | > 100000 | – | – | –
46 | CCCCc1c(C)nc(NCC)[nH]c1=O [ETHIRIMOL] | 100000 | > 100000 | – | > 100000 | – | –

Row | Compound | IC90 (Trypanosoma cruzi [1]; [4]) [nM] | IC50 (Trypanosoma cruzi [2]; [4]) [nM] | IC50 ([3]; IC50) [nM] | IC50 [3] [nM] | IC90 (Trypanosoma cruzi [1]) | IC50 (Trypanosoma cruzi [2])
47 | Fc1cc(Cl)ccc1C(NC1CCN(c2nccc(C(F)(F)F)n2)CC1)c1cccnc1 (configuration not stated) | 63 | 22.5 | 55400 | – | – | –
48 | OC(c1ccc(Cl)cc1)(c1cccnc1)c1cnc(Cl)nc1 (configuration not stated) | – | – | > 100000 | – | 339 nM and 850 nM | 163 nM and 480 nM
49 | CC(C)c1ccc(S(=O)(=O)NC2CCN(C(c3cnccn3)c3ccc(F)cc3F)CC2)cc1 (configuration not stated) | > 1000 | 850 | 25500 | – | – | –
50 | Cc1ncsc1C(=O)N1CCN(C(c2cccnc2)c2ccc(C(F)(F)F)cc2F)CC1 (configuration not stated) | 131 | 58.5 | 96900 | – | – | –
51 | CC(C)(C)OC(=O)NC1CCN(C(c2ccc(Cl)cc2)c2cncnc2)CC1 (configuration not stated) | 260 | 60 | > 100000 | – | – | –
52 | CC(C)(C)OC(=O)N1CCN(C(c2cccnc2)c2ccc(C#N)cc2F)CC1 (configuration not stated) | 940 | 532 | > 100000 | – | – | –
53 | N#Cc1ccc(C(c2cccnc2)N2CCC(NC(=O)c3cccc(F)c3F)CC2)cc1 (configuration not stated) | 55.5 | 17 | > 100000 | – | – | –
54 | OC(c1ccc(Cl)cc1)(c1ccc(Cl)cc1)c1cccc(F)c1 | 840 | 560 | 53200 | – | – | –
55 | OC(c1ccc(C(F)(F)F)cc1)(c1cccnc1)c1ccccc1F (configuration not stated) | 210 | 22 | – | > 100000 | – | –
56 | O=C(NC(c1ccc(C(F)(F)F)cc1)c1cnccn1)c1ccccc1 (configuration not stated) | > 1000 | > 1000 | > 100000 | – | – | –
57 | O=C(NC1CCN(C(c2cncnc2)c2ccc(Cl)cc2F)CC1)c1cccc(F)c1 (configuration not stated) | 204 | 40.5 | 61200 | – | – | –
58 | OC(c1ccc(C(F)(F)F)cc1)(c1cncnc1)c1ccccc1Cl (configuration not stated) | 20000 | 250 | > 100000 | – | – | –
59 | O=C(c1cccc(C(O)(c2ccc(Cl)cc2)c2cccnc2)c1)N1CCOCC1 (configuration not stated) | 120 | 34 | > 100000 | – | – | –
60 | CN(C)C(=O)NC1CCN(C(c2cnccn2)c2ccc(F)cc2F)CC1 (configuration not stated) | > 1000 | > 1000 | > 100000 | – | – | –
61 | Cc1cnc(N2CCC(NC(c3ccc(C(F)(F)F)cc3)c3cccnc3)CC2)s1 (configuration not stated) | 101 | 29 | 59900 | – | – | –
62 | N#Cc1ccccc1OC1CCN(C(c2ccc(C(F)(F)F)cc2)c2cccnc2)CC1 (configuration not stated) | 90 | 48 | 57800 | – | – | –
63 | Cc1ccsc1C(O)(c1ccc(Cl)cc1)c1ccc(Cl)cc1 | > 10000 | > 10000 | 58800 | – | – | –
64 | OC(c1ccc(Cl)cc1)(c1cccnc1)c1cncnc1 (configuration not stated) | 59000 | 1530 | > 100000 | – | – | –
65 | Nc1nc(N2CCN(C(c3cccnc3)c3ccc(C(F)(F)F)cc3F)CC2)no1 (configuration not stated) | 92 | 36.5 | 57800 | – | – | –
66 | O=S(=O)(NC1CCN(C(c2cnccn2)c2ccc(F)cc2F)CC1)c1ccc(Cl)cc1 (configuration not stated) | > 1000 | > 1000 | 34300 | – | – | –
67 | CC(C)(C)OC(=O)NC1CCN(C(c2ccc(C#N)cc2)c2cccnc2)CC1 (configuration not stated) | 100 | 26 | > 100000 | – | – | –
68 | OC(c1ccc(Cl)cc1)(c1cccnc1)c1cnc(OCC2CC2)nc1 (configuration not stated) | 332 | 25 | 60400 | – | – | –
69 | Cc1cc(C(=O)N2CCC(NC(c3ccc(C(F)(F)F)cc3)c3cccnc3)CC2)no1 (configuration not stated) | 350 | 120 | > 100000 | – | – | –
